Assay results taken from patent US12590123B2, “Compounds and methods for treating cancer, viral infections, and allergic conditions” (Washington University, priority 2019, dated 2026).

How the values were obtained:
Format in all cases: biochemical
[1] = biological target: T1, KLK5 (Homo sapiens, UniProt Q9Y337); assay: Fluorescent kinetic enzyme inhibitor assay of KLK5 (Boc-VPR-AMC); conditions: Table 4; 7.5 nM KLK5, 100 μM substrate
T1 construct: purchased R&D Systems 1108-SE-010
T1 sequence (Q9Y337 23-293): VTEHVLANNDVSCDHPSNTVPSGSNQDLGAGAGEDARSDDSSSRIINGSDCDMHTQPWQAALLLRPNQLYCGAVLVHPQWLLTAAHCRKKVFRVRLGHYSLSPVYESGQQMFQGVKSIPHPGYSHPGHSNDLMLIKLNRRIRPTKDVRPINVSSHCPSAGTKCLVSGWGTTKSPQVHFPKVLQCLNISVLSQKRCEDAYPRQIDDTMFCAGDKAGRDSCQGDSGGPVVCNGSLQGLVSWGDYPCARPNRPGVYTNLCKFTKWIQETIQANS
Experimental: Fluorescent Kinetic Enzyme Inhibitor Assay of KLK5: Inhibitors (11-pt serial dilutions, 0-20 μM final concentration in reaction) were serially diluted in DMSO (2% DMSO final concentration) and then mixed with KLK5 (#1108-SE-010, R&D Systems, Minneapolis, Minnesota) in black 384 well plates (Corning #3575. Corning, NY). The final assay concentration for KLK5 is 7.5 nM in TNC buffer (25 mM Tris, 150 mM NaCl, 5 mM CaCl2), 0.01% Triton X-100, pH 8). After thirty minutes incubation at room temperature, Boc-VPR-AMC substrate was added. The final substrate concentrations for assay is 100 μM. Changes in fluorescence (excitation at 380 nm and emission at 460 nm) were measured at room temperature over time in a Biotek Synergy 2 plate reader (Winnoski, VT). Using GraphPad Prism version 6.04 software program, (GraphPad Software, San Diego, CA, graphpad.com), a four parameter curve fit was used to determine the inhibitor IC50s from a plot of the mean reaction velocity versus the inhibitor concentration. The IC50 values represent the average of three or more separate experimental determinations.

[2] = biological target: T2, matriptase (Homo sapiens, UniProt Q9Y5Y6); assay: Fluorescent kinetic enzyme assay of matriptase activity (Boc-QAR-AMC); conditions: Table 2; read-out: Matriptase (IC50 nM)
T2 construct: purchased R&D Systems 3946-SE-010
T2 sequence (Q9Y5Y6 615-855 limits assumed): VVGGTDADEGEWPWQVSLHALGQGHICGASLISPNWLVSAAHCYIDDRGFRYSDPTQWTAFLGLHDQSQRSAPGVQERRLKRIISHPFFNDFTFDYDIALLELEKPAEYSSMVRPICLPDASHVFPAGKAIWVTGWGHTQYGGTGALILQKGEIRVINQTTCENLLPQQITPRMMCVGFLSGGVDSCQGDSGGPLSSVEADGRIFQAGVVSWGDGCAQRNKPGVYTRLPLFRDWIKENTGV

[3] = biological target: Factor Xa (Homo sapiens, UniProt P00742); assay: Chromogenic kinetic enzyme assay of Factor Xa (S2222); conditions: Table 2; chromogenic assay; read-out: Factor Xa* (IC50 nM)
Factor Xa, sequence (P00742 235-488 limits assumed): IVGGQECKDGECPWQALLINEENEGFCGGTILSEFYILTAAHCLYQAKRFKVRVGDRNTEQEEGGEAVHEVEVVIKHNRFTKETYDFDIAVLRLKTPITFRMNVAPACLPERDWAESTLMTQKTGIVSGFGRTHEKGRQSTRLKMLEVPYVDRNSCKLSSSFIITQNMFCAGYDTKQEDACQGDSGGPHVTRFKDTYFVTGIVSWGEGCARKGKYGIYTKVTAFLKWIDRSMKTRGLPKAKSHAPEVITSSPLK
Factor Xa, sequence (P00742 41-179 partner limits assumed): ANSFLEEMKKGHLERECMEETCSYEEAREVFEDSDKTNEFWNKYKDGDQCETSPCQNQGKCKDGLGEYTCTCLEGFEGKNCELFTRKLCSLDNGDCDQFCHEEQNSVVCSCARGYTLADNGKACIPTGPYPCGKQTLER

IC50 [1]: 2530 nM
IC50 [2]: 3.4 nM
IC50 [3]: 1530 nM
Compound: CC(=O)N[C@H]1CC(=O)NCCCC[C@@H](C(=O)N[C@@H](CCCNC(=N)N)C(=O)c2nc3ccccc3s2)NC(=O)[C@H](Cc2ccccc2)NC1=O [VD3112, (3S,6S,14S)-6-acetamido-N—((S)-1-(benzo[d]thiazol-2-yl)-5-guanidino-1-oxopentan-2-yl)-3-benzyl-2,5,8-trioxo-1,4,9-triazacyclotetradecane-14-carboxamide]
